The source of these data is PubChem BioAssay AID180 (DTP/NCI, 2004).

Where “and” joins values, the source holds several entries; their conditions need not be identical. Equal entries are not always repeated.

In this test the test system is BDF1 mice, Adenocarcinoma 755 s.c., tumor weight T/C. The test is described as follows: NCI In Vivo Anticancer Drug Screen. Data for tumor model Adenocarcinoma 755 (subcutaneous) in B6D2F1 (BDF1) mice. Conditions: endpoint: mean tumor weight, higher = larger tumour. Summed up: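 Compound activity was tested in mice carrying transplanted tumors. Survival or tumor size was measured, and each value is the treated-group measurement divided by that of the vehicle-treated control group (T/C).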

Setting [1] is: dose: 30.0 mg/kg/injection, schedule: Q01DX011 (ip), vehicle: carboxymethylcellulose (CMC).
[2] abbreviates: dose: 60.0 mg/kg/injection, schedule: Q01DX011 (ip), vehicle: carboxymethylcellulose (CMC).
[3] abbreviates: dose: 240.0 mg/kg/injection, schedule: Q01DX011 (ip), vehicle: carboxymethylcellulose (CMC).

Take `C=CCC1(CCC)C(=O)NC(=O)NC1=O`: the T/C (commonly the result in the treated group divided by that in the control group, in per cent) was 79 % of control and 86 % of control (dose: 17.5 mg/kg/injection, schedule: Q01DX011 (ip), vehicle: methylcellulose (MC)); 23 % of control and 41 % of control (dose: 70.0 mg/kg/injection, schedule: Q01DX011 (ip), vehicle: methylcellulose (MC)); 42 % of control (dose: 140.0 mg/kg/injection, schedule: Q01DX011 (ip), vehicle: methylcellulose (MC)).

For the compound `Clc1ncnc2c1ncn2C1CCCO1` (stereo unspecified), the T/C is, setting by setting: (dose: 2.34 mg/kg/injection, schedule: Q01DX011 (ip), vehicle: methylcellulose (MC)) 50 % of control; (dose: 4.68 mg/kg/injection, schedule: Q01DX011 (ip), vehicle: methylcellulose (MC)) 68 % of control; (dose: 9.37 mg/kg/injection, schedule: Q01DX011 (ip), vehicle: methylcellulose (MC)) 69 % of control; (dose: 18.75 mg/kg/injection, schedule: Q01DX011 (ip), vehicle: methylcellulose (MC)) 41 % of control; (dose: 37.5 mg/kg/injection, schedule: Q01DX011 (ip), vehicle: methylcellulose (MC)) 9 % of control; (dose: 75.0 mg/kg/injection, schedule: Q01DX011 (ip), vehicle: methylcellulose (MC)) 1 % of control.

`Cn1cnc(N)c(NC=O)c1=O`: the T/C is 98 % of control (dose: 25.0 mg/kg/injection, schedule: Q01DX011 (ip), vehicle: carboxymethylcellulose (CMC)); 113 % of control (dose: 75.0 mg/kg/injection, schedule: Q01DX011 (ip), vehicle: carboxymethylcellulose (CMC)); 115 % of control (dose: 225.0 mg/kg/injection, schedule: Q01DX011 (ip), vehicle: carboxymethylcellulose (CMC)).

In the case of `C[C@]12C[C@H](O)[C@H]3[C@@H](CCC4=CC(=O)CC[C@@]43C)[C@@H]1CC[C@@H]2C(=O)CO`, the T/C is 110 % of control (dose: 10.0 mg/kg/injection, schedule: Q01DX011 (ip), vehicle: steriod suspending solution); 79 % of control (dose: 10.0 mg/kg/injection, schedule: Q01DX011 (sc), vehicle: steriod suspending solution); 103 % of control (dose: 20.0 mg/kg/injection, schedule: Q01DX011 (ip), vehicle: steriod suspending solution); 84 % of control (dose: 20.0 mg/kg/injection, schedule: Q01DX011 (sc), vehicle: steriod suspending solution); 67 % of control (dose: 40.0 mg/kg/injection, schedule: Q01DX011 (im), vehicle: steriod suspending solution); 81 % of control (dose: 40.0 mg/kg/injection, schedule: Q01DX011 (ip), vehicle: steriod suspending solution). The T/C reads like this: (dose: 40.0 mg/kg/injection, schedule: Q01DX011 (iv), vehicle: steriod suspending solution) 87 % of control; (dose: 40.0 mg/kg/injection, schedule: Q01DX011 (sc), vehicle: steriod suspending solution) 64 % of control; (dose: 50.0 mg/kg/injection, schedule: Q#A X022 (sc), vehicle: steriod suspending solution) 20 % of control; (dose: 80.0 mg/kg/injection, schedule: Q01DX011 (im), vehicle: steriod suspending solution) 49 % of control; (dose: 80.0 mg/kg/injection, schedule: Q01DX011 (ip), vehicle: steriod suspending solution) 95 % of control; (dose: 80.0 mg/kg/injection, schedule: Q01DX011 (iv), vehicle: steriod suspending solution) 64 % of control. For the same compound, the T/C reads like this: (dose: 80.0 mg/kg/injection, schedule: Q01DX011 (oral), vehicle: steriod suspending solution) 58 % of control; (dose: 80.0 mg/kg/injection, schedule: Q01DX011 (sc), vehicle: steriod suspending solution) 51 % of control; (dose: 100.0 mg/kg/injection, schedule: Q01DX011 (oral), vehicle: steriod suspending solution) 38 % of control; (dose: 100.0 mg/kg/injection, schedule: Q#A X022 (sc), vehicle: steriod suspending solution) 8 % of control; (dose: 150.0 mg/kg/injection, schedule: Q03DX004 (sc), vehicle: steriod suspending solution) 51 % of control; (dose: 160.0 mg/kg/injection, schedule: Q01DX011 (im), vehicle: steriod suspending solution) 30 % of control. Besides, the T/C by setting is: (dose: 160.0 mg/kg/injection, schedule: Q01DX011 (ip), vehicle: steriod suspending solution) 72 % of control; (dose: 160.0 mg/kg/injection, schedule: Q01DX011 (iv), vehicle: steriod suspending solution) 42 % of control; (dose: 160.0 mg/kg/injection, schedule: Q01DX011 (sc), vehicle: steriod suspending solution) 31 % of control; (dose: 175.0 mg/kg/injection, schedule: Q07DX002 (sc), vehicle: steriod suspending solution) 104 % of control; (dose: 300.0 mg/kg/injection, schedule: Q03DX004 (sc), vehicle: steriod suspending solution) 24 % of control; (dose: 320.0 mg/kg/injection, schedule: Q01DX011 (im), vehicle: steriod suspending solution) 22 % of control. Also, the T/C is 42 % of control (dose: 320.0 mg/kg/injection, schedule: Q01DX011 (ip), vehicle: steriod suspending solution); 38 % of control (dose: 320.0 mg/kg/injection, schedule: Q01DX011 (oral), vehicle: steriod suspending solution); 16 % of control (dose: 320.0 mg/kg/injection, schedule: Q01DX011 (sc), vehicle: steriod suspending solution); 58 % of control (dose: 350.0 mg/kg/injection, schedule: Q07DX002 (sc), vehicle: steriod suspending solution); 22 % of control (dose: 400.0 mg/kg/injection, schedule: Q01DX011 (oral), vehicle: steriod suspending solution); 9 % of control (dose: 600.0 mg/kg/injection, schedule: Q03DX004 (sc), vehicle: steriod suspending solution). The T/C by setting is: (dose: 640.0 mg/kg/injection, schedule: Q01DX011 (oral), vehicle: steriod suspending solution) 17 % of control and 18 % of control; (dose: 700.0 mg/kg/injection, schedule: Q07DX002 (sc), vehicle: steriod suspending solution) 20 % of control; (dose: 1200.0 mg/kg/injection, schedule: Q03DX004 (sc), vehicle: steriod suspending solution) 5 % of control; (dose: 1400.0 mg/kg/injection, schedule: Q07DX002 (sc), vehicle: steriod suspending solution) 16 % of control.

Consider `CCN(CC)CCOc1ccc(/C=N/Nc2nc3c(c(=O)n(C)c(=O)n3C)n2C)cc1`, for which the T/C under setting [1] was 94 % of control; the T/C under setting [2] was 113 % of control; the T/C under setting [3] is 102 % of control and 124 % of control.

Consider `O=C(OCC1OC(n2cnc3c(=O)[nH]c(=O)[nH]c32)C(OC(=O)c2ccccc2)C1OC(=O)c1ccccc1)c1ccccc1` (stereo unspecified), for which the T/C under setting [1] was 105 % of control, the T/C under setting [2] was 78 % of control and the T/C under setting [3] was 59 % of control.

In the case of `COCC1OC2OC3C(COC)OC(OC4C(COC)OC(OC5C(COC)OC(OC6C(COC)OC(OC7C(COC)OC(OC8C(COC)OC(OC1C(O)C2O)C(O)C8O)C(O)C7O)C(O)C6O)C(O)C5O)C(O)C4O)C(O)C3O` (stereo unspecified) (tested in a mixture with another compound), the T/C was 87 % of control (dose: 3.12 mg/kg/injection, schedule: Q01DX011 (ip), vehicle: Klucel (hydroxypropylcellulose) (HPC)); 97 % of control (dose: 6.25 mg/kg/injection, schedule: Q01DX011 (ip), vehicle: Klucel (hydroxypropylcellulose) (HPC)); 66 % of control (dose: 12.5 mg/kg/injection, schedule: Q01DX011 (ip), vehicle: Klucel (hydroxypropylcellulose) (HPC)); 95 % of control (dose: 25.0 mg/kg/injection, schedule: Q01DX011 (ip), vehicle: Klucel (hydroxypropylcellulose) (HPC)); 87 % of control (dose: 50.0 mg/kg/injection, schedule: Q01DX011 (ip), vehicle: Klucel (hydroxypropylcellulose) (HPC)); 51 % of control (dose: 100.0 mg/kg/injection, schedule: Q01DX011 (ip), vehicle: Klucel (hydroxypropylcellulose) (HPC)). For the same compound, the T/C was 104 % of control (dose: 200.0 mg/kg/injection, schedule: Q01DX011 (ip), vehicle: Klucel (hydroxypropylcellulose) (HPC)) and 71 % of control (dose: 400.0 mg/kg/injection, schedule: Q01DX011 (ip), vehicle: Klucel (hydroxypropylcellulose) (HPC)).

As to `O=c1cc2[nH]c(O)cn2c(=O)[nH]1`, the T/C under setting [1] was 95 % of control and 73 % of control; the T/C (dose: 120.0 mg/kg/injection, schedule: Q01DX011 (ip), vehicle: carboxymethylcellulose (CMC)) is 47 % of control; the T/C under setting [3] was 64 % of control.

Consider `CCCNc1ncnc2c1cnn2C1CCCCO1` (stereo unspecified), for which the T/C was 67 % of control (dose: 3.12 mg/kg/injection, schedule: Q01DX011 (ip), vehicle: methylcellulose (MC)); 54 % of control (dose: 6.25 mg/kg/injection, schedule: Q01DX011 (ip), vehicle: methylcellulose (MC)); 44 % of control (dose: 12.5 mg/kg/injection, schedule: Q01DX011 (ip), vehicle: methylcellulose (MC)).
